# Assay results from patent publication US4175081A, “5-Substituted thiadiazole ureas” (priority 1977, dated 1979).
# What was measured:
# Crabgrass (CG) [1] = test: Pre-emergence herbicide test; assay type: in vivo, Digitaria sanquinalis; conditions: Digitaria sanguinalis, pre-emergence, 336 h, two weeks after treatment
# Summary of the method: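 Crabgrass (Digitaria sanquinalis) was surface seeded in 3' plastic pots of potting soil, covered with screened soil, and watered by sub-irrigation in greenhouse trays. Pots were seeded one day before spraying in a hood with a moving belt and fixed nozzle. Plants stayed in the greenhouse on sub-irrigation, and pre-emergence control was rated visually two weeks after treatment.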
# Johnson grass (JG) = test: Pre-emergence herbicide test; assay type: in vivo, Sorgum helepense; conditions: Sorghum halepense, 336 h, two weeks after treatment
# Summary of the method: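 Visual injury or control rating two weeks post-treatment, after pre-emergence spray of 8 or 4 lbs active per acre (38 gal/acre) onto pots sown the previous day. Greenhouse watering by sub-irrigation only.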
# Barnyard grass (BG) = test: Pre-emergence herbicide test; assay type: in vivo; conditions: Echinochloa crus-galli, 336 h, two weeks after treatment
# Summary of the method: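 Greenhouse pre-emergence spray test: pots seeded one day before treatment received compound at rates of 8 or 4 lb/acre (38 gal/acre). Visual injury/control scores for Echinochloa crus-galli taken at two weeks, with watering by sub-irrigation only.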
# Amaranth pigweed (PW) = test: Pre-emergence herbicide test; assay type: in vivo, Amaranthus retroflexus; conditions: 336 h, two weeks after treatment
# Method: All crop and weed species were planted individually in 3' plastic pots containing potting soil. Four seeds each of corn, cotton, and snapbeans were seeded to a depth equal to the diameter of the seed. All other species were surface seeded and sprinkled with screened soil in an amount sufficient to cover the seed. Immediately after planting, all pots were watered by sub-irrigation in greenhouse trays. Pots for the pre-emergence phase were seeded one day before treatment.
# Compounds were tested at rates of application equivalent to 8 lbs. of actual compound per acre in a spray volume of 38 gallons per acre. Spray hood constants required to deliver the above volume are as follows:
# Formulations for spray applications were prepared in 50 ml volumes with the following three components:
# Formulations for the 4 lbs/acre rate were prepared by adjusting the amount of active ingredient accordingly.
# Spray applications were made in a hood containing a removable belt and fixed spray nozzle. For passage through the spray hood, one pot of each specie (pre-emergence phase) was placed on the rear half of the flat. Treatments were removed to the greenhouse after spraying. Watering during the observation period was done only by sub-irrigation.
# Two weeks after treatment, pre- and post-emergence injury or control was visually rated, and the results were as shown in the following tables. Pre-emergence data are provided in TABLE III and post-emergence data are provided in TABLE IV, for compounds having the formula illustrated in TABLE I. Correspondingly, pre-emergence and post-emergence data, respectively, are set forth in TABLES V AND VI, for compounds having the formula illustrated in TABLE II.
# Turnip (TP) [2] = test: Pre-emergence herbicide test; assay type: in vivo, Brassica sp.; conditions: Brassica rapa, pre-emergence, 336 h, two weeks after treatment
# Summary of the method: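 In this pre-emergence greenhouse test, turnip was seeded on the surface of potting soil in 3' plastic pots, lightly covered with screened soil, and watered from below. One day later the pots were sprayed in a belt-fed spray hood. Watering continued only by sub-irrigation, and percent control was visually scored two weeks after treatment.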
# Cotton (CT) [3] = test: Pre-emergence herbicide test; assay type: in vivo, Gossypium hirsutum var. DPL smooth leaf; conditions: Gossypium hirsutum, 336 h, two weeks after treatment
# Summary of the method: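 Visual injury/control ratings were taken at two weeks post-spray. Pots seeded a day earlier received compound pre-emergence at 8 lbs/acre, or 4 lbs/acre, in a 38 gallon/acre spray volume, and were then held in the greenhouse, watered only from below.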
# Corn (CN) = test: Pre-emergence herbicide test; assay type: in vivo; conditions: Zea mays, 336 h, two weeks after treatment
# Summary of the method: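 Visual injury/control ratings were made 2 weeks post-spray on corn pots seeded (4 seeds, seed-diameter depth) the day before treatment. Application was a belt-hood spray of 38 gal/acre delivering 8 lbs active per acre, with a 4 lbs/acre rate also formulated. Watering was by sub-irrigation throughout.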
# Bean (BN) [4] = test: Pre-emergence herbicide test; assay type: in vivo, Phaseolus vulgaris var. Black Valentine; conditions: Phaseolus vulgaris, 336 h, two weeks after treatment
# Summary of the method: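 Visual injury/control ratings were taken two weeks post-spray on sub-irrigated Phaseolus vulgaris var. Black Valentine. Pots were sown a day before treatment. Pre-emergence spray delivered 8 lbs actual compound per acre (or 4 lbs/acre) at 38 gallons per acre.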
# Crabgrass (CG) [5] = test: Post-emergence herbicide test; assay type: in vivo, Digitaria sanquinalis; conditions: Digitaria sanguinalis, post-emergence, 336 h, two weeks after treatment
# Summary of the method: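 Crabgrass (Digitaria sanquinalis) was surface seeded individually in 3' plastic pots of potting soil, covered with screened soil, and watered by sub-irrigation in greenhouse trays. Planting was staggered so seedlings reached the target stage together. Post-emergence sprays were applied in a hood with a removable belt and fixed nozzle, and control was visually rated two weeks after treatment.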
# Turnip (TP) [6] = test: Post-emergence herbicide test; assay type: in vivo, Brassica sp.; conditions: Brassica rapa, post-emergence, 336 h, two weeks after treatment
# Summary of the method: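 A greenhouse post-emergence herbicide test on turnip. Seeds were sown on the surface of potting soil in 3' plastic pots, lightly covered with screened soil and watered from below. Planting was timed so seedlings had 1 or 2 true leaves above the cotyledons at spraying, done in a hood with a fixed nozzle. Control or injury was scored by eye after two weeks.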
# Cotton (CT) [7] = test: Post-emergence herbicide test; assay type: in vivo, Gossypium hirsutum var. DPL smooth leaf; conditions: Gossypium hirsutum, post-emergence, 336 h, two weeks after treatment
# Summary of the method: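 This greenhouse post-emergence test measured how well spray treatments controlled cotton. Seedlings of Gossypium hirsutum var. DPL smooth leaf, with expanded cotyledons and a first true leaf 1' in length, were sprayed with 50 ml formulations in a belt-fed spray hood. They were then returned to the greenhouse and watered only by sub-irrigation. Injury was scored visually as % control after two weeks.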
# Bean (BN) [8] = test: Post-emergence herbicide test; assay type: in vivo, Phaseolus vulgaris var. Black Valentine; conditions: Phaseolus vulgaris, post-emergence, 336 h, two weeks after treatment
# Summary of the method: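 Bean seedlings (Phaseolus vulgaris var. Black Valentine) were grown in potting soil in 3' pots until the primary leaves expanded. They were then sprayed under a hood with a removable belt and fixed nozzle, using 50 ml formulations. Afterward they were returned to the greenhouse and watered only by sub-irrigation. Percent control was judged visually two weeks after treatment.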
structure (smiles),measurement,setting,value
CCCCSc1nnc(N(C)C(=O)NC)s1 [Example 90],pest or weed control at 560.425 g/ha,Crabgrass (CG) [1]; 0.5 lb/acre,10%
same,pest or weed control at 1120.85 g/ha,Crabgrass (CG) [1]; 1 lb/acre,10%
same,pest or weed control at 2241.7 g/ha,Crabgrass (CG) [1]; 2 lb/acre,90%
same,pest or weed control at 4483.4 g/ha,Crabgrass (CG) [1]; 4 lb/acre,90%
same,pest or weed control at 560.425 g/ha,Johnson grass (JG); 0.5 lb/acre,10%
same,pest or weed control at 1120.85 g/ha,Johnson grass (JG); 1 lb/acre,10%
same,pest or weed control at 2241.7 g/ha,Johnson grass (JG); 2 lb/acre,50%
same,pest or weed control at 4483.4 g/ha,Johnson grass (JG); 4 lb/acre,50%
same,pest or weed control at 560.425 g/ha,Barnyard grass (BG); 0.5 lb/acre,10%
same,pest or weed control at 1120.85 g/ha,Barnyard grass (BG); 1 lb/acre,10%
same,pest or weed control at 2241.7 g/ha,Barnyard grass (BG); 2 lb/acre,90%
same,pest or weed control at 4483.4 g/ha,Barnyard grass (BG); 4 lb/acre,90%
same,pest or weed control at 560.425 g/ha,Amaranth pigweed (PW); 0.5 lb/acre,10%
same,pest or weed control at 1120.85 g/ha,Amaranth pigweed (PW); 1 lb/acre,30%
same,pest or weed control at 2241.7 g/ha,Amaranth pigweed (PW); 2 lb/acre,100%
same,pest or weed control at 4483.4 g/ha,Amaranth pigweed (PW); 4 lb/acre,100%
same,pest or weed control at 560.425 g/ha,Turnip (TP) [2]; 0.5 lb/acre,10%
same,pest or weed control at 1120.85 g/ha,Turnip (TP) [2]; 1 lb/acre,10%
same,pest or weed control at 2241.7 g/ha,Turnip (TP) [2]; 2 lb/acre,60%
same,pest or weed control at 4483.4 g/ha,Turnip (TP) [2]; 4 lb/acre,80%
same,pest or weed control at 560.425 g/ha,Cotton (CT) [3]; 0.5 lb/acre,10%
same,pest or weed control at 1120.85 g/ha,Cotton (CT) [3]; 1 lb/acre,10%
same,pest or weed control at 2241.7 g/ha,Cotton (CT) [3]; 2 lb/acre,30%
same,pest or weed control at 4483.4 g/ha,Cotton (CT) [3]; 4 lb/acre,50%
same,pest or weed control at 560.425 g/ha,Corn (CN); 0.5 lb/acre,10%
same,pest or weed control at 1120.85 g/ha,Corn (CN); 1 lb/acre,10%
same,pest or weed control at 2241.7 g/ha,Corn (CN); 2 lb/acre,10%
same,pest or weed control at 4483.4 g/ha,Corn (CN); 4 lb/acre,30%
same,pest or weed control at 560.425 g/ha,Bean (BN) [4]; 0.5 lb/acre,10%
same,pest or weed control at 1120.85 g/ha,Bean (BN) [4]; 1 lb/acre,10%
same,pest or weed control at 2241.7 g/ha,Bean (BN) [4]; 2 lb/acre,40%
same,pest or weed control at 4483.4 g/ha,Bean (BN) [4]; 4 lb/acre,70%
same,pest or weed control at 560.425 g/ha,Crabgrass (CG) [5]; 0.5 lb/acre,30%
same,pest or weed control at 1120.85 g/ha,Crabgrass (CG) [5]; 1 lb/acre,60%
same,pest or weed control,Crabgrass (CG) [5]; 2 lb/acre,90%
same,pest or weed control at 4483.4 g/ha,Crabgrass (CG) [5]; 4 lb/acre,90%
same,pest or weed control at 560.425 g/ha,Turnip (TP) [6]; 0.5 lb/acre,90%
same,pest or weed control at 1120.85 g/ha,Turnip (TP) [6]; 1 lb/acre,100%
same,pest or weed control at 2241.7 g/ha,Turnip (TP) [6]; 2 lb/acre,100%
same,pest or weed control at 4483.4 g/ha,Turnip (TP) [6]; 4 lb/acre,100%
same,pest or weed control at 560.425 g/ha,Cotton (CT) [7]; 0.5 lb/acre,100%
same,pest or weed control at 1120.85 g/ha,Cotton (CT) [7]; 1 lb/acre,100%
same,pest or weed control at 2241.7 g/ha,Cotton (CT) [7]; 2 lb/acre,100%
same,pest or weed control at 4483.4 g/ha,Cotton (CT) [7]; 4 lb/acre,100%
same,pest or weed control at 560.425 g/ha,Bean (BN) [8]; 0.5 lb/acre,90%
same,pest or weed control at 1120.85 g/ha,Bean (BN) [8]; 1 lb/acre,100%
same,pest or weed control at 2241.7 g/ha,Bean (BN) [8]; 2 lb/acre,100%
same,pest or weed control at 4483.4 g/ha,Bean (BN) [8]; 4 lb/acre,100%
